pIC50: −log10 of the molar value. Where “and” joins values, the source holds several entries; their conditions need not be identical. Equal values may be shown once.
Tested on: 429239-143-T-J1-PDC complex spheroid viability
Experiment: Anticancer human tumor 429239-143-T-J1-PDC patient-derived small cell lung carcinoma cell line growth inhibition [POLQ]
Conditions: for viability, T/C: stronger effect = lower value
Experimental: Multicellular complex tumor spheroid response to Polymerase (POL) inhibitors (novobiocin, ART-558, RP6685) in combination with a variety of drugs and investigational agents in selected tumor cell lines
The POL inhibitors (novobiocin, ART-558, and RP6685) were evaluated both individually and in combination with standard of care and investigational anticancer small molecules within a complex spheroid model of solid tumors. . Complex spheroids include a stromal component modeled by human endothelial cells (HUVEC) and fibroblasts modeled by human mesenchymal stem cells (MSCs). The concentration ranges selected for each drug and investigational agent were based upon clinically achievable concentrations if the clinical Cmax of the agent was known.
Compounds. The drugs and investigational agents: novobiocin (NSC847541), ART-558 (NSC835418), RP-6685 (NSC848927), peposertib (NSC802822), ceralasertib (NSC780249), elimusertib (NSC800525), camonsertib (NSC841442), AZD-1390 (NSC803789), olaparib (NSC753686), talazoparib (NSC767125), rucaparib (NSC756644), sotorasib (NSC818433), MRTX-1133 (NSC836407), SN-38 (NSC673596), topotecan (NSC609699), epotoside (NSC141540), doxorubicin (NSC123127), gemcitabine (NSC613327), 5-fluorouracil (NSC19893), paclitaxel (NSC125973), vemurafenib (NSC761431), MSA-2 (NSC828583), SN-011 (NSC837082), adavosertib (NSC754352), prexasertib (NSC758257), carboplatin (NSC241240) and oxaliplatin (NSC266046), were obtained from the National Cancer Institute (NCI) Developmental Therapeutics Program Chemical Repository (21). The FDA-approved anticancer drug set is available from the Developmental Therapeutics Program at https://dtp.cancer.gov/organization/dscb/obtaining/. […] The stock solutions were prepared in dimethyl sulfoxide (DMSO, Sigma-Aldrich, St. Louis, MO, cat. D2650), except for the platinum compounds which were prepared in saline (Quality Biological, Gaithersburg, MD, cat. 114-055-101), at 800-fold the tested concentration and stored at -70 degrees C prior to their use. All drugs and investigational agents were tested over a range starting from a high concentration at or near the clinical Cmax and decreasing in half-log increments. If the clinical Cmax for an agent had not been determined, the highest concentration tested was 10 microM, except for SN-38, which was tested at a high concentration of 1 microM.
Cell Culture. All cells were maintained in an incubator at 37 degrees C and 5% CO2 with 95% humidity. The PDC lines were cultured according to standard operating procedures established by the NCI PDMR (https://pdmr.cancer.gov). Table 3 of the manuscript, lists the cell lines along with the number of the three cell types plated to form the mct-spheroids and media for tumor cell growth. After thawing, all PDC lines, except 997537-175-T-J1-PDC and 415267-285-R-J2-PDC, were cultured in Matrigel-coated flasks prepared with a working solution of 1X Ham's F-12 nutrient mix, without supplementation (Thermo Fisher Scientific, cat. 11765054), 100 U/mL penicillin-streptomycin (Thermo Fisher Scientific, cat. 15140122), and 2.5% Matrigel (Corning Inc., Corning, NY, cat. 354248) for the first three passages. The two PDC lines 997537-175-T-J1-PDC and 415267-285-R-J2-PDC were cultured on uncoated flasks. The 857933-349-R-J2-PDC line was cultured in 6C/Colon 1B media containing advanced DMEM/F-12 (Thermo Fisher Scientific, cat. 12634028), 10 mM HEPES (Thermo Fisher Scientific, cat. 15630080), 1X GlutaMAX supplement (Thermo Fisher Scientific, cat. 35050061), 0.1 mg/mL primocin (InvivoGen, San Diego, CA, cat. ant-pm-2), 10% defined fetal bovine serum, heat inactivated (HyClone Laboratories Inc., Logan, UT, cat. SH30070.03HI), 50% L-WRN conditioned media (ATCC, cat. CRL-3276), 1.25 mM N-Acetyl-L-cysteine (Sigma-Aldrich, cat. A9165), 10 mM nicotinamide (Sigma-Aldrich, cat. N0636), 1X B-27 supplement (Thermo Fisher Scientific, cat. 17504044), 1X N-2 supplement (Thermo Fisher Scientific, cat. […]
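Note: luminescence signal used as surrogate measure of viable cells; spheroids exposed to compounds for seven days before readout.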
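Throughout, for viability, T/C: 100% = DMSO vehicle control viability as luminescence relative to vehicle.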

`CC[C@@]1(O)C(=O)OCc2c1cc1n(c2=O)Cc2cc3c(CN(C)C)c(O)ccc3nc2-1` + COC1C(OC(N)=O)C(O)C(Oc2ccc3c(O)c(NC(=O)c4ccc(O)c(CC=C(C)C)c4)c(=O)oc3c2C)OC1(C)C gave a pIC50 (curve of first compound, second compound 0.0316 µM) of 7.87, a pIC50 (curve of first compound, second compound 0.1 µM) of 7.80 and a pIC50 (curve of first compound, second compound 0.316 µM) of 7.82. For the same compound, the pIC50 (curve of first compound, second compound 1 µM) was 7.78, the pIC50 (curve of first compound, second compound 3.16 µM) was 7.87 and the pIC50 (curve of first compound, second compound 10 µM) was 7.79. The viability, T/C (second compound 0.0316 µM, first compound 0.000316 µM) was 102%, the viability, T/C (second compound 0.0316 µM, first compound 0.001 µM) was 101% and the viability, T/C (second compound 0.0316 µM, first compound 0.00316 µM) was 86.5%. The viability, T/C (second compound 0.0316 µM, first compound 0.01 µM) was 63%, the viability, T/C (second compound 0.0316 µM, first compound 0.0316 µM) was 18.6% and the viability, T/C (second compound 0.0316 µM, first compound 0.1 µM) was 19.8%. The viability, T/C (second compound 0.1 µM, first compound 0.000316 µM) was 110%, the viability, T/C (second compound 0.1 µM, first compound 0.001 µM) was 108% and the viability, T/C (second compound 0.1 µM, first compound 0.00316 µM) was 88.7%. The viability, T/C (second compound 0.1 µM, first compound 0.01 µM) was 72.9%, the viability, T/C (second compound 0.1 µM, first compound 0.0316 µM) was 16.8% and the viability, T/C (second compound 0.1 µM, first compound 0.1 µM) was 19%. For the same compound, the viability, T/C (second compound 0.316 µM, first compound 0.000316 µM) was 98.4%, the viability, T/C (second compound 0.316 µM, first compound 0.001 µM) was 97.4% and the viability, T/C (second compound 0.316 µM, first compound 0.00316 µM) was 101%. It also gave a viability, T/C (second compound 0.316 µM, first compound 0.01 µM) of 66.3%, a viability, T/C (second compound 0.316 µM, first compound 0.0316 µM) of 20.4% and a viability, T/C (second compound 0.316 µM, first compound 0.1 µM) of 19.7%. It also gave a viability, T/C (second compound 1 µM, first compound 0.000316 µM) of 93.6%, a viability, T/C (second compound 1 µM, first compound 0.001 µM) of 98% and a viability, T/C (second compound 1 µM, first compound 0.00316 µM) of 83.7%. The viability, T/C (second compound 1 µM, first compound 0.01 µM) was 73.8%, the viability, T/C (second compound 1 µM, first compound 0.0316 µM) was 17.7% and the viability, T/C (second compound 1 µM, first compound 0.1 µM) was 21.4%. For the same compound, the viability, T/C (second compound 3.16 µM, first compound 0.000316 µM) was 108%, the viability, T/C (second compound 3.16 µM, first compound 0.001 µM) was 93.4% and the viability, T/C (second compound 3.16 µM, first compound 0.00316 µM) was 99.7%. It also gave a viability, T/C (second compound 3.16 µM, first compound 0.01 µM) of 61.4%, a viability, T/C (second compound 3.16 µM, first compound 0.0316 µM) of 18.5% and a viability, T/C (second compound 3.16 µM, first compound 0.1 µM) of 18.4%. The viability, T/C (second compound 10 µM, first compound 0.000316 µM) was 87.8%, the viability, T/C (second compound 10 µM, first compound 0.001 µM) was 103% and the viability, T/C (second compound 10 µM, first compound 0.00316 µM) was 91.1%. For the same compound, the viability, T/C (second compound 10 µM, first compound 0.01 µM) was 71.1%, the viability, T/C (second compound 10 µM, first compound 0.0316 µM) was 20.8% and the viability, T/C (second compound 10 µM, first compound 0.1 µM) was 17.4%.
`O=c1[nH]cc(F)c(=O)[nH]1` was tested, and the viability, T/C (compound 0.0316 µM) was 89.3% and 95% and 104%, the viability, T/C (compound 0.1 µM) was 103% and 106% and 96% and the viability, T/C (compound 0.316 µM) was 92.2% and 102% and 97.8%. The viability, T/C (compound 1 µM) was 84% and 89.3% and 89.6%, the viability, T/C (compound 3.16 µM) was 70.4% and 45.9% and 66.5% and the viability, T/C (compound 10 µM) was 45.4% and 32.2% and 40.9%. The pIC50 (curve of compound) was 5.09 and 5.55 and 5.18.
`C=CC(=O)N1CCN(c2nc(=O)n(-c3c(C)ccnc3C(C)C)c3nc(-c4c(O)cccc4F)c(F)cc23)C(C)C1` (stereo unspecified) was tested, and the viability, T/C (compound 0.0316 µM) was 96.4% and 97.7% and 104%, the viability, T/C (compound 0.1 µM) was 100% and 103% and 90.4% and the viability, T/C (compound 0.316 µM) was 98.7% and 103% and 101%. For the same compound, the viability, T/C (compound 1 µM) was 105% and 101% and 102%, the viability, T/C (compound 3.16 µM) was 114% and 103% and 113% and the viability, T/C (compound 10 µM) was 112% and 102% and 108%. It also gave a pIC50 (curve of compound) of under 5.00.

— PubChem BioAssay AID1963845 (Molecular Pharmacology Branch, DTP, NCI, 2024)
